# Data from patent publication US20110070232A1, “Combination Therapy with an Antitumor Alkaloid” (Pharma Mar, S.A., priority 2008, published 2011).
# Read-outs that look alike come from different tables or passages of the source.
# How the values were obtained:
# PLC/PRF/5 tumors = type: in vivo, mice
# Method: Female athymic nude mice (Harlan Sprague Dawley, Madison, Wis.) were utilized for all experiments. Animals were housed in ventilated rack caging with food and water ad libitum. The mice were acclimated for at least 5 days prior to tumor implantation with a tumor cell suspension.
# The tumor model used in these studies was PLC/PRF/5 cell line, which was obtained from the ATCC (Manassas, Va.).
# PLC/PRF/5 were grown in Eagle's minimum essential medium supplemented with 10% FBS and 1% L-glutamine. Each animal was implanted SC on the right flank, using a 13G trochar and 1 mL syringe, with 5×10^6 PLC/PRF/5 cells in a 0.2 mL suspension of 50% Matrigel and 50% serum free MEM medium, without antibiotics. Bacterial cultures were performed on aliquots of the cells prepared for implantation.
# Treatments were initiated on DPI 14.
# Tumor size measurements were recorded twice weekly from the treatment initiation until the termination of the study.
# (§1) Mean, standard deviation and standard error of the mean were determined for tumor volume for all animal groups at all assessments. Student's t test was performed on tumor volumes at each measurement day, including at the end of the study, to determine whether there were any statistically significant differences between combination treatment groups and single monotherapy treatment groups.
# CaLu-6 tumors = type: in vivo, mice; conditions: G2 PM00104 0.9 mg/kg/day IV
# Source text: (§2) Female athymic nude mice (Harlan Sprague Dawley, Madison, Wis.) were utilized for all experiments. Animals were housed in ventilated rack caging with food and water ad libitum. The mice were acclimated for at least 5 days prior to tumor implantation.
# The tumor model used in this study was CaLu-6 cell line which is a human lung cell line obtained from the ATCC (Manassas, Va.). […] Cells from in vitro passage 10 were those implanted SC into study mice.
# Treatments were initiated on DPI 9.
# (§3) Tumor size measurements were recorded 2-3 times/week from the treatment initiation until the termination of the study.
# as §1
# [1] = test system: BxPC-3 human pancreatic carcinoma cell line; test: IC50 determination, MTS assay, 72 h (Example 3); type: cell-based; conditions: 72 hours of drug exposure
# Method: (§4) Gemcitabine (Gemzar®) was the agent evaluated in combination with PM00104. The human pancreatic carcinoma cell lines selected for this assay were the following: BxPC-3, PANC-1, MIA PaCA-2, and SW1990 cell lines. BxPC-3 cell line was grown in RPMI 1640 medium supplemented with 10% FBS, 1.5 g/L sodium bicarbonate, 4.5 g/L glucose, 10 mM HEPES, 1 mM sodium pyruvate, and 2 mM L-glutamine. PANC-1 cell line was grown in DMEM supplemented with 10% FBS, 1.5 g/L sodium bicarbonate, 4.5 g/L glucose, and 4 mM L-glutamine. MIA PaCA-2 cell line was grown in DMEM supplemented with 10% FBS, 1.5 g/L sodium bicarbonate, 4.5 g/L glucose, 2.5% Horse Serum, and 2 mM L-glutamine. SW1990 cell line was grown in RPMI 1640 medium supplemented with 10% FBS and 2 mM L-glutamine.
# (§5) a. […] It was used the same methodology as those disclosed in Example 1.
# (§6) IC50 values were calculated from an average of three assays for each of the test agents.
# [2] = test system: PANC-1 human pancreatic carcinoma cell line; test: IC50 determination, MTS assay, 72 h (Example 3); type: cell-based; conditions: 72 hours of drug exposure
# Method: as §4, §5, §6
# [3] = test system: MIA PaCA-2 human pancreatic carcinoma cell line; test: IC50 determination, MTS assay, 72 h (Example 3); type: cell-based; conditions: 72 hours of drug exposure
# Method: as §4, §5, §6
# [4] = test system: SW1990 human pancreatic carcinoma cell line; test: IC50 determination, MTS assay, 72 h (Example 3); type: cell-based; conditions: 72 hours of drug exposure
# Method: as §4, §5, §6
# NCI-H460 tumors = type: in vivo, mice
# Source text: as §2
# The tumor model used in this study was NCI-H460 cell line which is a human NSCLC cell line obtained from the ATCC (Manassas, Va.). […] Cells from in vitro passage 9 were those implanted SC into study mice.
# Treatments were initiated on DPI 8.
# as §3, §1
# [5] = test system: HT-29 (colon cancer) cell line; test: IC50 determination, MIT (tetrazolium) assay, 72 h (Example 18); type: cell-based, human; conditions: Homo sapiens; HT-29, 72 hours of drug exposure
# Method: (§7) Before plating, cell cultures were trypsinized and cell number estimated using an automated flow cytometer.
# (§8) Cells were harvested and seeded in 96 well microtiter plates at the appropriate cell density (5,000-10,000 cells) in 150 μL of media and incubated for 24 hours to allow the cells to attach before drug addition.
# (§9) After the incubation period (72 hours), 50 μL of MIT solution was added to each microtiter well and incubated for further 8 hours at 37° C. The culture medium was then removed and 50 μl, of DMSO were added to dissolve the MIT crystals. Optical densities were read at 540 nm on spectrophotometer microplate reader.
# (§10) IC50 values were calculated from an average of two to four assays for each of the test agents.
# [6] = test system: LoVo (colon cancer) cell line; test: as above; type: cell-based, human; conditions: Homo sapiens, 72 hours of drug exposure
# Method: as §7, §8, §9, §10
# [7] = day 14, PM00104 0.90, sorafenib 60 mg/kg/day
# [8] = day 18, PM00104 0.90, sorafenib 60 mg/kg/day
# [9] = day 22, PM00104 0.90, sorafenib 60 mg/kg/day
# [10] = day 25, PM00104 0.90, sorafenib 60 mg/kg/day
# [11] = day 28, PM00104 0.90, sorafenib 60 mg/kg/day
# [12] = day 32, PM00104 0.90, sorafenib 60 mg/kg/day
# [13] = day 35, PM00104 0.90, sorafenib 60 mg/kg/day
# [14] = day 39, PM00104 0.90, sorafenib 60 mg/kg/day
# [15] = day 42, PM00104 0.90, sorafenib 60 mg/kg/day
# [16] = PM00104 0.9 mg/kg/day IV and/or Gemcitabine 180 mg/kg/day IP
# [17] = Gemcitabine 90 mg/kg/day IP, alone or with PM00104 0.9 mg/kg/day IV
structure (smiles),measurement,setting,value
COc1c(C)cc2c(c1O)[C@@H]1[C@@H]3Cc4c(OC(C)=O)c(C)c5c(c4[C@H](CNC(=O)/C=C/c4cccc(C(F)(F)F)c4)N3[C@@H](O)[C@H](C2)N1C)OCO5 [PM00104],% T/C,"PLC/PRF/5 tumors; day 14, PM00104 0.45, sorafenib 60 mg/kg/day",106.5%
same,% Inhibition,PLC/PRF/5 tumors; [7],−0.8%
same,% T/C,PLC/PRF/5 tumors; [7],100.8%
same,% T/C,"PLC/PRF/5 tumors; day 18, PM00104 0.45, sorafenib 60 mg/kg/day",71.1%
same,% Inhibition,PLC/PRF/5 tumors; [8],21.2%
same,% T/C,PLC/PRF/5 tumors; [8],78.8%
same,% T/C,"PLC/PRF/5 tumors; day 22, PM00104 0.45, sorafenib 60 mg/kg/day",73.5%
same,% Inhibition,PLC/PRF/5 tumors; [9],33.3%
same,% T/C,PLC/PRF/5 tumors; [9],66.7%
same,% T/C,"PLC/PRF/5 tumors; day 25, PM00104 0.45, sorafenib 60 mg/kg/day",80.4%
same,% Inhibition,PLC/PRF/5 tumors; [10],29.0%
same,% T/C,PLC/PRF/5 tumors; [10],71.0%
same,% T/C,"PLC/PRF/5 tumors; day 28, PM00104 0.45, sorafenib 60 mg/kg/day",67.3%
same,% Inhibition,PLC/PRF/5 tumors; [11],47.1%
same,% T/C,PLC/PRF/5 tumors; [11],52.9%
same,% T/C,"PLC/PRF/5 tumors; day 32, PM00104 0.45, sorafenib 60 mg/kg/day",79.7%
same,% Inhibition,PLC/PRF/5 tumors; [12],54.4%
same,% T/C,PLC/PRF/5 tumors; [12],45.6%
same,% T/C,"PLC/PRF/5 tumors; day 35, PM00104 0.45, sorafenib 60 mg/kg/day",71.7%
same,% Inhibition,PLC/PRF/5 tumors; [13],45.1%
same,% T/C,PLC/PRF/5 tumors; [13],54.9%
same,% T/C,"PLC/PRF/5 tumors; day 39, PM00104 0.45, sorafenib 60 mg/kg/day",89.2%
same,% Inhibition,PLC/PRF/5 tumors; [14],22.9%
same,% T/C,PLC/PRF/5 tumors; [14],77.1%
same,% T/C,"PLC/PRF/5 tumors; day 42, PM00104 0.45, sorafenib 60 mg/kg/day",85.7%
same,% Inhibition,PLC/PRF/5 tumors; [15],29.9%
same,% T/C,PLC/PRF/5 tumors; [15],70.1%
same,% T/C on day 9,CaLu-6 tumors,104.1%
same,% T/C on day 13,CaLu-6 tumors,106.0%
same,% T/C on day 16,CaLu-6 tumors,111.4%
same,% T/C on day 20,CaLu-6 tumors,115.4%
same,% T/C on day 27,CaLu-6 tumors,93.9%
same,% T/C on day 30,CaLu-6 tumors,80.3%
same,% T/C on day 34,CaLu-6 tumors,81.5%
same,% T/C on day 42,CaLu-6 tumors,77.2%
same,% Inhibition,CaLu-6 tumors; day 9,−4.1%
same,% Inhibition,CaLu-6 tumors; day 13,−6.0%
same,% Inhibition,CaLu-6 tumors; day 16,−11.4%
same,% Inhibition,CaLu-6 tumors; day 20,−15.4%
same,% Inhibition,CaLu-6 tumors; day 23,−16.8%
same,% Inhibition,CaLu-6 tumors; day 27,6.1%
same,% Inhibition,CaLu-6 tumors; day 30,19.7%
same,% Inhibition,CaLu-6 tumors; day 34,18.5%
same,% Inhibition,CaLu-6 tumors; day 42,22.8%
same,IC50,[1],0.036 µg/mL
same,IC50,[2],0.015 µg/mL
same,IC50,[3],0.093 µg/mL
same,IC50,[4],0.0051 µg/mL
same,% T/C on day 8,NCI-H460 tumors; [16],103.0%
same,% T/C on day 11,NCI-H460 tumors; [16],98.5%
same,% T/C on day 14,NCI-H460 tumors; [16],85.6%
same,% T/C on day 18,NCI-H460 tumors; [16],90.8%
same,% T/C on day 21,NCI-H460 tumors; [16],81.2%
same,% T/C on day 25,NCI-H460 tumors; [16],76.7%
same,% T/C on day 28,NCI-H460 tumors; [16],77.3%
same,IC50,[5],6 nM
same,IC50,[6],3 nM
"O=c1[nH]cc(F)c(=O)[nH]1 [5-FU, 5-fluorouracil]",IC50,[5],4000 nM
same,IC50,[6],1800 nM
"Nc1ccn([C@@H]2O[C@H](CO)[C@@H](O)C2(F)F)c(=O)n1 [Gemcitabine, gemcitabine]",IC50,[1],0.84 µg/mL
same,IC50,[2],110 µg/mL
same,IC50,[3],0.079 µg/mL
same,IC50,[4],0.012 µg/mL
same,% T/C on day 8,NCI-H460 tumors; [17],108.6%
same,% T/C on day 11,NCI-H460 tumors; [17],83.2%
same,% T/C on day 14,NCI-H460 tumors; [17],90.2%
same,% T/C on day 18,NCI-H460 tumors; [17],65.3%
same,% T/C on day 21,NCI-H460 tumors; [17],73.4%
same,% T/C on day 25,NCI-H460 tumors; [17],63.2%
same,% T/C on day 28,NCI-H460 tumors; [17],76.9%
same,% T/C on day 8,NCI-H460 tumors; [16],101.3%
same,% T/C on day 14,NCI-H460 tumors; [16],67.5%
same,% T/C on day 18,NCI-H460 tumors; [16],52.0%
same,% T/C on day 21,NCI-H460 tumors; [16],69.3%
same,% T/C on day 25,NCI-H460 tumors; [16],58.7%
same,% T/C on day 28,NCI-H460 tumors; [16],56.8%
